According to US20240269145A1, “USE OF INDOLE COMPOUND AS INHIBITORS OF FERROPTOSIS” (MITOIMMUNE THERAPEUTICS INC., priority 2023, published 2024):

Assays:
Assay type in all cases: cell-based
MLE-12 cells [1] = assay: Mitochondrial ROS (MitoSOX) after RSL3; conditions: MLE-12, 1 μM RSL3, 2 hours
Procedure: To confirm the protective effect against mitochondrial reactive oxygen species in lung epithelial cells, 2×10^5 MLE-12 cells were dispensed into each well of a 12-well plate and cultured for 18 to 24 hours. Each well was treated with Example Compound 1 and ferrostatin-1, which were diluted so that their final concentration became 0.01, 0.1, 1, and 10 μM, and culture was performed for 15 minutes. Afterwards, the cells were treated so that the final concentration of RSL3 became 1 μM, and cultured for 2 hours. To confirm the inhibitory effect against mitochondrial reactive oxygen species, MitoSOX™ mitochondrial superoxide indicators (mitochondrial oxidative stress indicator) (MitoSOX) [Invitrogen™; C6827] was used. According to the manufacturer's experimental method, MitoSOX was diluted in the cell culture medium so that the final concentration became 5 μM, and the cells were treated therewith and allowed to react for 30 minutes to perform fluorescent staining. The MLE-12 cells fluorescently stained with MitoSOX were detached from the 12-well plate using 0.25% Trypsin-EDTA and transferred to a microtube, and the fluorescence (excitation/absorption ˜396 nm/610 nm) was measured using BD FACSLyric™ to calculate the rate of change compared to the control group (RSL3 untreated group).

H9C2 = assay: Cell death protection, LDH release after RSL3; conditions: H9C2, RSL3 0.5 μM, 24 hours
Procedure: (§1) To confirm the protective effect on cardiac cells, adrenal medulla cells, renal fibroblasts, retinal epithelial cells, lung epithelial cells, renal proximal tubule epithelial cells, hippocampal neurons, and fibroblasts, 4×10^3 to 1.2×10^4 cells of each cell type were dispensed into 96-well plates and cultured for 18 to 24 hours. Each well was treated with the example compound, which was diluted so that the final concentration became 0.001, 0.003, 0.01, 0.03, 0.1, 0.3, 1, 3, and 10 μM, and culture was performed for 15 to 20 minutes. […] To confirm the cell protecting effect of the example compounds, a cytotoxicity LDH assay kit [Dojindo; CK12] was used to measure the level of extracellular secretion of lactate dehydrogenase (LDH). Briefly, at the time point when the 24-hour treatment of each cell type with RSL3 ended, 70 μL of each supernatant from cell culture medium was taken and transferred to a new 96-well plate. After adding 70 μL/well (the same amount as the sample) of the assay buffer included in the kit, the resulting mixture was wrapped with foil and allowed to react at room temperature for 15 to 20 minutes. After observing the color change of the sample, 35 μL/well of a stop solution was added, and the absorbance value at 490 nm was measured using an iD3 spectrophotometer to calculate the EC50 value.
(§2) Table 3. Effect of protecting cardiac cells, adrenal medulla cells, renal fibroblasts, retinal epithelial cells, lung epithelial cells, renal proximal tubule epithelial cells, hippocampal neurons, and fibroblasts against cell death induced by RSL3.

PC-12 = assay: Cell death protection, LDH release after RSL3; conditions: PC-12, RSL3 0.3 μM, 24 hours
Procedure: as §1, §2

HK-2 = assay: Cell death protection, LDH release after RSL3; conditions: HK-2, RSL3 0.3 μM, 24 hours
Procedure: as §1, §2

ARPE-19 = assay: Cell death protection, LDH release after RSL3; conditions: ARPE-19, RSL3 0.3 μM, 24 hours
Procedure: as §1, §2

MLE-12 = assay: Cell death protection, LDH release after RSL3; conditions: 24 hours
Procedure: as §1, §2

HT-22 = assay: Cell death protection, LDH release after RSL3; conditions: HT-22, RSL3 0.3 μM, 24 hours
Procedure: as §1, §2

NIH/3T3 = assay: Cell death protection, LDH release after RSL3; conditions: 24 hours
Procedure: as §1, §2

NRK-49F = assay: Cell death protection, LDH release after RSL3; conditions: RSL3 3 μM, 24 hours
Procedure: as §1, §2

MLE-12 cells [2] = assay: Cytosolic iron ion accumulation (FerroOrange, flow cytometry) after RSL3; conditions: MLE-12, 1 μM RSL3, 8 hours
Procedure: To confirm the inhibitory effect against cytosolic iron ion accumulation in lung epithelial cells, 2×10^5 MLE-12 cells were dispensed into each well of a 12-well plate and cultured for 18 to 24 hours. Each well was treated with Example Compound 1 and ferrostatin-1, which were diluted so that their final concentration became 0.01, 0.1, 1, and 10 μM, and culture was performed for 15 minutes. Afterwards, the cells were treated so that the final concentration of RSL3 became 1 μM, and cultured for 8 hours. To confirm the inhibitory effect against cytosolic iron ion accumulation, FerroOrange [DOJINDO; F374] was used. According to the manufacturer's experimental method, FerroOrange was diluted in the cell culture medium so that the final concentration became 1 μM, and the cells were treated therewith and allowed to react for 30 minutes to perform fluorescent staining. The MLE-12 cells fluorescently stained with FerroOrange were detached from the 12-well plate using 0.25% Trypsin-EDTA and transferred to a microtube, and the fluorescence (excitation/absorption 580 nm/543 nm) was measured using BD FACSLyric™ to calculate the rate of change compared to the control group (RSL3 untreated group).

NIH/3T3 cells = assay: Cytosolic lipid ROS after erastin, Experimental Example 3-3; conditions: NIH/3T3, erastin 3 μM, 6 hr; tested 0.1, 1, 10 μM
Procedure: [The source words this procedure for another cell line and says it was used here with some conditions changed.] Experimental Example 3-1: To confirm the protective effect against cytosolic lipid reactive oxygen species in lung epithelial cells, 2×10^5 MLE-12 cells were dispensed into each well of a 12-well plate and cultured for 18 to 24 hours. Each well was treated with Example Compound 1 and ferrostatin-1, which were diluted so that their final concentration became 0.01, 0.1, 1, and 10 μM, and culture was performed for 15 minutes. Afterwards, the cells were treated so that the final concentration of RSL3 became 1 μM, and cultured for 2 hours. To confirm the inhibitory effect against cytosolic lipid reactive oxygen species, BODIPY™ 581/591 C11 (lipid peroxidation sensor) [Invitrogen™; D3861] was used. According to the manufacturer's experimental method, BODIPY™ 581/591 C11 was diluted in the cell culture medium so that the final concentration became 5 μM, and the cells were treated therewith and allowed to react for 30 minutes to perform fluorescent staining. The MLE-12 cells fluorescently stained with BODIPY™ 581/591 C11 were detached from the 12-well plate using 0.25% Trypsin-EDTA and transferred to a microtube, and the fluorescence (excitation/absorption 500 to 650 nm/510 to 665 nm) was measured using BD FACSLyric™ to calculate the rate of change compared to the control group. […]

O=S1(=O)CCN(Cc2cc(NC3CCOCC3)c3[nH]c(-c4ccccc4)cc3c2)CC1 [Example 1, 5-[(1,1-dioxido-4-thiomorpholinyl)methyl]-2-phenyl-N-(tetrahydro-2H-pyran-4-yl)-1H-indole-7-amine]
concentration at which mitochondrial reactive oxygen species were significantly decreased (MLE-12 cells [1]): 0.1 µM | EC50 (H9C2; Rattus norvegicus): 0.03 to 0.1 µM | EC50 (PC-12; Rattus norvegicus): 0.03 to 0.1 µM | EC50 (HK-2; Homo sapiens): ≤ 0.03 µM | EC50 (ARPE-19; Homo sapiens): ≤ 0.03 µM | EC50 (MLE-12; MLE12, MLE-12, RSL3 1 μM): ≤ 0.03 µM | EC50 (HT-22; Mus musculus): ≤ 0.03 µM | EC50 (NIH/3T3; Mus musculus, NIH3T3, NIH/3T3, RSL3 3 μM): 0.03 to 0.1 µM | EC50 (NRK-49F; Rattus norvegicus): ≤ 0.03 µM | concentration at which cytosolic iron ion accumulation was significantly decreased (MLE-12 cells [2]): 0.1 µM | concentration at which cytosolic lipid reactive oxygen species were decreased (NIH/3T3 cells): 0.1 µM

CCOC(=O)c1ccc(NC2CCCCC2)c(N)c1 [Fer-1, ferrostatin-1, reference compound]
concentration at which mitochondrial reactive oxygen species were significantly decreased (MLE-12 cells [1]): 0.1 µM | EC50 (H9C2): 0.03 to 0.1 µM | EC50 (PC-12): 0.03 to 0.1 µM | EC50 (HK-2): 0.03 to 0.1 µM | EC50 (ARPE-19): 0.03 to 0.1 µM | EC50 (MLE-12; MLE-12, RSL3 1 μM): 0.03 to 0.1 µM | EC50 (HT-22): 0.03 to 0.1 µM | EC50 (NIH/3T3; NIH/3T3, RSL3 3 μM): 0.03 to 0.1 µM | EC50 (NRK-49F): 0.03 to 0.1 µM | concentration at which cytosolic iron ion accumulation was significantly decreased (MLE-12 cells [2]): 1 µM | concentration at which cytosolic lipid reactive oxygen species were decreased (NIH/3T3 cells): 10 µM
